The text below walks through data of paper PMC10901819, “Structure-function analysis of the cyclic β-1,2-glucan synthase from Agrobacterium tumefaciens” (Nature Communications, 2024).

For this test, the target named is T1, Cgs (CgsWT) (Agrobacterium fabrum, UniProt Q7CWD9).
T1 construct: gene chvB; full length, C-terminal 3xFlag from chromosomal insertion; purified from native A. tumefaciens C58 membranes in DDM; nanodiscs (cryo-EM) or proteoliposomes (activity); subpopulation of dimers
Kind of test: cryo-EM structure. The class given is binding. To be noted: GT active site; sample incubated with 5 mM UDP-Glc, 1.5 mM MgCl2, pH 7.5, 22 °C; putative UDP density.

As to `O=c1ccn([C@@H]2O[C@H](COP(=O)(O)OP(=O)(O)O)[C@@H](O)[C@H]2O)c(=O)[nH]1` [UDP], the cryo-EM structure entry is on record as “The CgsWT model contains an additional density docked at the active site”.
